{"source": "ChEMBL document CHEMBL6074639", "about": "“MALT1 Inhibitors for Treating Cancer and Immunological Diseases” (ACS Med Chem Lett, 2024)"}
{"biological_target": "T1, Mucosa-associated lymphoid tissue lymphoma translocation protein 1 (Homo sapiens, UniProt Q9UDY8)", "T1 sequence (Q9UDY8 whole entry)": "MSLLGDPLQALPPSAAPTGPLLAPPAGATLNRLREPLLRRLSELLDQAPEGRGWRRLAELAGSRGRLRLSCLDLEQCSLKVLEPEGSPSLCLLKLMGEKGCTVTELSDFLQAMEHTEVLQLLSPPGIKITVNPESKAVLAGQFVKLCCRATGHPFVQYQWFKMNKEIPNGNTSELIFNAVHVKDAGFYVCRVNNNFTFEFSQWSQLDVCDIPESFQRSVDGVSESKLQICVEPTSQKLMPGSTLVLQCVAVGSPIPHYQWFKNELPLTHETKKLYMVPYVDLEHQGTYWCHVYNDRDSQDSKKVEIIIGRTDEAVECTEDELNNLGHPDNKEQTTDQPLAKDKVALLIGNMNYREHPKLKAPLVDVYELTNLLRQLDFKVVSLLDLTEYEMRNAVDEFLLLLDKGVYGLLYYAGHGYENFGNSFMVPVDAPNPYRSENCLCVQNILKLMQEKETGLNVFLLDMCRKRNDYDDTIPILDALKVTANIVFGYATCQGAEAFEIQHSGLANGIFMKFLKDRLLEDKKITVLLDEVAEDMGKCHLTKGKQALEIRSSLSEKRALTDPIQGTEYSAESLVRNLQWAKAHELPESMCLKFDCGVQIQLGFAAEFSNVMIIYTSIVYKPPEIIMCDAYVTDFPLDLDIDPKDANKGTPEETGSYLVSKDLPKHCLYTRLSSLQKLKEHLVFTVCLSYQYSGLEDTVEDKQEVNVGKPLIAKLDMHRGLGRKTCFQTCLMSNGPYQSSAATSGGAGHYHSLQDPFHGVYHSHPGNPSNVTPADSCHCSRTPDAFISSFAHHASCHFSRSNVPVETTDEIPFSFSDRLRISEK", "assay": "Inhibition of full length his-tagged MALT1 (1 to 824 residues) (unknown origin) expressed in Baculovirus infected in insect cells using tetrapeptide-[…]-AMC as fluorescent substrate preincubated for 50 mins followed by substrate addition and measured after 4 hrs by fluorescence based analysis", "units": {"IC50": "nM"}}
{"compound": "C[C@@]1(C(F)(F)F)CN(c2ccc([C@H]3C(F)(F)[C@]3(C)C(=O)NCC(N)=O)cc2)c2cnc3cc(Cl)nn3c21", "IC50": 5}
{"compound": "CC(C)(C)NC(=O)[C@]1(C)[C@@H](c2ccc(N3C[C@@](C)(C(F)(F)F)c4c3cnc3cc(Cl)nn43)cc2)C1(F)F", "IC50": 6}
{"compound": "C[C@@]1(C(F)(F)F)CN(c2ccc([C@H]3C(F)(F)[C@]3(C)C(=O)NCCS(N)(=O)=O)cc2)c2cnc3cc(Cl)nn3c21", "IC50": 6}
{"compound": "C[C@@]1(C(F)(F)F)CN(c2ccc([C@H]3C(F)(F)[C@]3(C)C(=O)NCC3CNC(=O)C3)cc2)c2cnc3cc(Cl)nn3c21", "note": "(stereo partly specified)", "IC50": 6}
{"compound": "C[C@@]1(C(F)(F)F)CN(c2ccc([C@H]3C(F)(F)[C@]3(CO)C(N)=O)cc2)c2cnc3cc(Cl)nn3c21", "IC50": 5}
{"compound": "C[C@@]1(C(F)(F)F)CN(c2ccc([C@H]3C(F)(F)[C@]3(C)C(=O)N[C@H]3C[C@@H](C[S+](C)(=N)[O-])C3)cc2)c2cnc3cc(Cl)nn3c21", "note": "(stereo partly specified)", "IC50": 6}
